Experimental data as given in patent US20190070139A1, “AGENT FOR IMPROVING PHYSICAL FITNESS” (AJINOMOTO CO., INC, priority 2016, published 2019).

Tests used:
[1] = tested on: male CD2F1 mice; experiment: Treadmill running until exhaustion (endurance capacity); format: in vivo, mouse
Procedure: 6-Week-old male CD2F1 mice (CHARLES RIVER LABORATORIES JAPAN, INC.) were divided into 3 groups of a group with ingestion of a normal diet (AIN-93G composition) and without exercise (non-exercise group), a group with ingestion of a normal diet and with exercise (exercise group), and a group with ingestion of a diet containing 2 wt % cystine (free form), which was prepared by replacing casein in the normal diet with cystine, and with exercise (exercise+2% cystine group). Each group ingested a test diet (normal diet or normal diet containing 2 wt % cystine) for 8 days. Thereafter, the exercise group and the exercise+2% cystine group were made to run on a treadmill until exhaustion for 3 consecutive days, and the running time until then was measured (FIG. 1). […] On the next day after completion of the 3-day running, the muscle of the mice in each group was collected, and the amount of glycogen in the muscle was measured. […] Thereafter, the mice were forced to run until exhaustion under the exercise conditions similar to those in Experimental Example 1, and the running time then was measured. […] The next day, the mice were made to run until exhaustion under the exercise conditions similar to those in Experimental Example 1, and the running time then was measured. The amount of increase in the running time was calculated as an endurance-improving effect. […]

[2] = tested on: glycogen in gastrocnemius muscle; experiment: Amount of glycogen in gastrocnemius muscle; format: in vivo, mouse; details: Experimental Example 1; next day after 3-day continuous exercise; Ex+Cyt (2 wt % cystine diet) vs Ex
Procedure: 6-Week-old male CD2F1 mice (CHARLES RIVER LABORATORIES JAPAN, INC.) were divided into 3 groups of a group with ingestion of a normal diet (AIN-93G composition) and without exercise (non-exercise group), a group with ingestion of a normal diet and with exercise (exercise group), and a group with ingestion of a diet containing 2 wt % cystine (free form), which was prepared by replacing casein in the normal diet with cystine, and with exercise (exercise+2% cystine group). Each group ingested a test diet (normal diet or normal diet containing 2 wt % cystine) for 8 days. Thereafter, the exercise group and the exercise+2% cystine group were made to run on a treadmill until exhaustion for 3 consecutive days, and the running time until then was measured (FIG. 1). The non-exercise group was fasted and deprived of water during running of the other two groups. On the next day after completion of the 3-day running, the muscle of the mice in each group was collected, and the amount of glycogen in the muscle was measured. The amount of glycogen in muscle was measured as follows. […] Glucose in this solution was detected and quantified using “glucose CII-Test Wako” (manufactured by Wako Pure Chemical Industries, Ltd.). […] The groups with exercise were forced to run in a treadmill until exhaustion for 2 consecutive days and the running time then was measured. […]

SMILES: NC(CSSCC(N)C(=O)O)C(=O)O (stereo not drawn) [cystine, 3,3′-dithiobis(2-aminopropanoic acid)]
- amount of increase in the running time by exercise ([1]; Experimental Example 1, diet containing 2 wt % cystine for 8 days, then running until exhaustion for 3 consecutive days, Ex+Cyt vs Ex (normal diet)): significantly (P<0.05 or P<0.01) higher
- amount of increase in the running time ([1]; Experimental Example 2, 2 wt % cystine diet given for one day after exercise on day 1, day 2 minus day 1, Ex+Cyt vs Ex): tended to be higher
- amount of glycogen in gastrocnemius muscle [2]: further significantly (P<0.05) increased
